From publication PMC8455565 (Scientific Reports, 2021)

Key:
BTK [1] = target: T1, BTK (Rattus norvegicus, UniProt Q5S255); assay: BTK occupancy and BTK phosphorylation in CIA model rats (PD); type: in vivo; details: for correlation coefficient, arthritis score vs BTK occupancy: negative correlation; for correlation coefficient, clinical arthritis score vs BTK phosphorylation: positive correlation
T1 construct: endogenous in cells; host or cells: rat PBMCs (normal rats in vitro; CIA model rats ex vivo)
Experimental: (§1) The BTK occupancy assay and analysis of BTK phosphorylation inhibition were performed as described previously. Briefly, isolated PBMCs were lysed with RIPA buffer (R0278, Sigma-Aldrich) containing 1 × protease/phosphatase inhibitor (1861281, Thermo Fisher Scientific) and EDTA (1861274, Thermo Fisher Scientific). The supernatants were collected by 10 min at 14,000 × g in microcentrifuge at 4 °C and biotinylated probe was added to bind free BTK for 1 h. Rabbit anti-BTK Ab (1:5000 in 1% BSA) bound the captured BTK/probe complex, and was detected with […] antibody conjugated with HRP then ultra-TMB solution was added to each well for the free BTK analysis. Analysis of free and total BTK levels for the phase I study was conducted by Cambridge Biomedical Inc. (MA, USA). BTK occupancy was calculated by taking the free BTK and total BTK results from a given donor and used the following formula: %BTKoccupancy=100%-FreeBTK/totalBTK×100.
For analysis of BTK phosphorylation inhibition, the relative percentage of phosphorylated BTK was calculated by the following equation: phospho-BTK level / total BTK level × 100. The results are presented as the mean percentage ± S.D.
Figure 5 Pharmacologic inhibition of BTK and its correlation with efficacy. (A,B) Whole blood was collected from the CIA-induced rats at the 0, 4, 12, 24 h after final drug administration, and then PBMCs and plasma were isolated. BTK phosphorylation was detected by immunoblotting and normalized to the total BTK level, and BTK occupancy was measured by ELISA using a biotinylated probe as described in the Materials and Methods. […] Full-length blots are presented in Supplementary Fig. 1. (C) Correlations between drug efficacy (clinical arthritis score) and the PD markers BTK phosphorylation percentage (left)/drug efficacy and BTK occupancy percentage (right). Linear regression was performed by using GraphPad Prism 6. The data are presented as the mean ± S.D.

[2] = Plasma pharmacokinetics in CIA model rats; type: in vivo; details: Lewis, rat; for AUC(0-t) / Tmax / Cmax: day 9, mean ± SD; for Cmax: po
Experimental: After drug administration, whole blood was collected from CIA model rats and human subjects at the indicated times. Plasma was obtained by centrifugation at 12,000 rpm for 2 min and stored at − 20 °C until analysis.

BTK [3] = target: T1, BTK; assay: BTK occupancy molecular probe assay in rat PBMCs; type: cell-based; details: 1 h treatment, biotinylated probe; read-out: IC50, BTK target modulation (occupancy) in rat PBMCs
Experimental: as §1
BTK occupancy (%) was calculated from the free BTK percentage, which was compared with that of the untreated control group. […] Bone erosion ( →) was quantified a subchondral and bone destruction and synovitis (*) was scored degree of pannus formation, including synovial inflammation, hypertrophy, interstitial edema, and fibrosis (H&E). Cartilage damage (□) was semiquantitatively scored as an intensity of Safranin-O staining (red). […]

Monocytes (M-CSF) = assay: High-dimensional phosphorylation analysis, Monocytes (M-CSF); type: cell-based, human
Experimental: The analysis measured 94 intracellular signaling nodes (81 phosphorylation sites, 10 total protein levels and 3 methylation/acetylation sites) in stimulated immune cells, including B cells (IgM plus CD40L), CD4 + and CD8 + T cells (IL-2; CD3 plus CD28), monocytes (M-CSF), NK cells (IL-2), and granulocytes (LPS).

T1 sequence (Q5S255 1-660): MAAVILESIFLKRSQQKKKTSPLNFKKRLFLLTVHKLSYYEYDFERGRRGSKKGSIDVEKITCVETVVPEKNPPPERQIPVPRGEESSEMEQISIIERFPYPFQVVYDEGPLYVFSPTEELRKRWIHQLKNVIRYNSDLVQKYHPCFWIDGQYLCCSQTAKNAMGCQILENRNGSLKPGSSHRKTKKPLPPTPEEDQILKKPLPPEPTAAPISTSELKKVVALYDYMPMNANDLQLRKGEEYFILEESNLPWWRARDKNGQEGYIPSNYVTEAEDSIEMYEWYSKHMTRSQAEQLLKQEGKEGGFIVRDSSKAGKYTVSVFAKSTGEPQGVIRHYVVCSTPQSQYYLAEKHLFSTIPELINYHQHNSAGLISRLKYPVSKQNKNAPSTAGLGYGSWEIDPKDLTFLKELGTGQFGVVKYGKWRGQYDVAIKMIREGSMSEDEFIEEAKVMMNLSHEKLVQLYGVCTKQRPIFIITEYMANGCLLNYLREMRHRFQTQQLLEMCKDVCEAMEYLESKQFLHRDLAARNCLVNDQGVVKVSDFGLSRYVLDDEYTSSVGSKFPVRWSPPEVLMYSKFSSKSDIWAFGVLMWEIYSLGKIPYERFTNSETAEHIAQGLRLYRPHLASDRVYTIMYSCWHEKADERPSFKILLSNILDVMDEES

## C=CC(=O)Nc1cccc(Oc2nc(Nc3ccc(N4CCN(C)CC4)cc3)nc3ccoc23)c1 [Poseltinib]
BTK [1]; 3 mg/kg, 4 h after the last administration
  BTK occupancy: full BTK occupancy
BTK [1]; 3 mg/kg, at 12 and 24 h
  BTK occupancy: completely occupied
BTK [1]; 0.3 and 1 mg/kg, 4 h after the last administration
  BTK occupancy: partial BTK occupancy
BTK [1]; 0.3 and 1 mg/kg, at 12 and 24 h
  BTK phosphorylation: partially inhibited
BTK [1]; 4 h
  correlation coefficient, arthritis score vs BTK occupancy: 0.8003
  correlation coefficient, clinical arthritis score vs BTK phosphorylation: 0.6750
BTK [1]; 12 h
  correlation coefficient, arthritis score vs BTK occupancy: 0.8757
  correlation coefficient, clinical arthritis score vs BTK phosphorylation: 0.7795
BTK [1]; 24 h
  correlation coefficient, arthritis score vs BTK occupancy: 0.8528
  correlation coefficient, clinical arthritis score vs BTK phosphorylation: 0.8603
[2]; 0.3 mg/kg oral
  AUC(0-t): 2 ± 1.8 ng·h/mL
  Tmax: 36 ± 18 min
[2]; 1 mg/kg oral
  AUC(0-t): 10 ± 3.6 ng·h/mL
  Tmax: 30 min
[2]; 3 mg/kg oral
  AUC(0-t): 49.9 ± 10.4 ng·h/mL
  Tmax: 84 ± 108 min
[2]; oral, all treatment groups (0.3, 1, 3 mg/kg), day 9, below LLOQ, read-out: plasma concentration at 4 h after drug administration
  concentration at 4 h: < 0.5 ng/mL
[2]; 0.3 mg/kg, 0.3 mg/kg oral
  Cmax: 1.5 ± 0.5 ng/mL
[2]; 1 mg/kg, 1 mg/kg oral
  Cmax: 7.3 ± 3.3 ng/mL
[2]; 3 mg/kg, 3 mg/kg oral
  Cmax: 22.6 ± 2.3 ng/mL
BTK [3]
  IC50: 14.6 ± 3.3 nM
Monocytes (M-CSF); 30 µM, 5'
  AKT1 phosphorylation, Log2Ratio Stim/Control: 0.41
  Akt phosphorylation, Log2Ratio Stim/Control: 1.06
  BTK phosphorylation, Log2Ratio Stim/Control: -0.12
  GSK3B phosphorylation, Log2Ratio Stim/Control: 0.82
  HSP27 phosphorylation, Log2Ratio Stim/Control: 1.80
  MAPK3 phosphorylation, Log2Ratio Stim/Control: 1.88
  NDRG1 phosphorylation, Log2Ratio Stim/Control: 0.97
  RELB phosphorylation, Log2Ratio Stim/Control: 0.82
  RPS6KA1 phosphorylation, Log2Ratio Stim/Control: 1.33
  RPS6 phosphorylation, Log2Ratio Stim/Control: 0.89
Monocytes (M-CSF); data not shown
  AKT phosphorylation in monocytes stimulated with M-CSF: did not inhibit
